Laboratory results: patent US10829530B2, “Analogues of VDAC1-derived peptides” (B. G. NEGEV TECHNOLOGIES AND APPLICATIONS LTD., AT …, priority 2015, dated 2020)
Read-outs that look alike come from different tables or passages of the source.

Tests used:
B16F10.0 melanoma cells = assay: Cell death induction in B16F10.0 melanoma cells (PI staining, FACS); format: cell-based, mouse; conditions: B16F10.0, serum-free medium, 6 h
Description: (§1) Cells in suspension were counted (2×10^6/ml) and treated on the same day whereas adherent cells were counted and seeded (1.5−2×10^5/ml) in 12 wells plate 16-24 h before treatment. Cells in suspension or adherent cells were incubated in serum-free medium (200 μl or 500 μl, respectively) with various concentrations of peptide of interest (for 90 min or 6 h, respectively) at 37° C. in the presence of 5% CO2. Cells were collected (adherent cells by trypsinization), centrifuged (1500×g, 5 min), washed once with PBS and analyzed for cell death using propidium iodide (PI) staining and flow cytometer (Beckton-Dickinson, San Jose, Calif.) and BD CellQuest Pro software.
(§2) PI solution was diluted with PBS to a final concentration of 0.5 mg/ml. 2.5 μl of the PI solution were added to each FACS tube, and the tubes were vortexed gently to homogenize the cell suspension. Cell viability was measured in the FACS channel FL3 and data were analyzed using CellQuest Pro software.
Cell death was analyzed by PI staining and FACS.

PANC-2 cells = assay: Cell death induction in PANC-2 pancreatic cancer cells (PI staining, flow cytometry); format: cell-based, mouse; conditions: PANC-2, serum-free medium, 6 h
Description: as §1, §2
(§3) The human (PANC-1) and mouse (PANC-2) cancerous pancreatic cells were used in this assay. […] Cell death was analyzed by PI staining and percentage of cell death was measured by Flow Cytometery.

GL-261 cells = assay: Cell death induction in GL-261 glioma cells (PI staining, FACS); format: cell-based, mouse; conditions: GL-261, serum-free medium, 6 h
Description: as §1, §2

U-87MG cells = assay: Intracranial-orthotopic U-87MG xenograft in nude mice (MRI tumor volume, survival); format: in vivo, mouse; conditions: administrated intravenously, inferred from effect on brain tumor
Description: For the intracranial-orthotopic xenograft mouse model, U-87MG cells (8×10^4) were engrafted into a nude mouse brain using a stereotactic device. […] Mice were subjected to MRI and then sacrificed. Brains were excised and processed for IHC. Tumor volume was analyzed using VivoQuant 2.10 software.
25 and 32 days later, tumor growth was monitored by MRI (FIG. 11A).

THP-1 cells = assay: Cell death induction in THP-1 leukemia cells (PI staining, flow cytometry); format: cell-based, human; conditions: THP-1, serum-free medium, 90 min, 37° C.
Description: as §1, §2
Cells of human monocytic cell line derived from an acute monocytic leukemia patient (THP-1 cells, 400,000 cells per well) were used in this experiment.

PANC-1 cells = assay: Cell death induction in PANC-1 pancreatic cancer cells (PI staining, flow cytometry); format: cell-based, human; conditions: PANC-1, serum-free medium, 6 h
Description: as §1, §2, §3

[1] = system: glioma-derived stem cell (GSC) line G7; assay: Cell death induction in G7 glioma-derived stem cells (PI staining, flow cytometry); format: cell-based, human; conditions: n=3, read-out: concentration for inducing 50% cell death (EC50)
Description: The G7 GSC cell line was grown using specific glioblastoma stem cell medium, as described previously (Pollard S M et al 2009. Cell Stem Cell. 4(6):568-580.)
The GSC-specific markers, Sox2, Musashi, and Nestin were highly expressed in G7, as compared to U-87MG cells, containing about 1% GSCs, thus confirming the stemness of the cells (FIG. 7B, 7C). Klf4 was expressed in both cell lines with its level in G7 slightly higher. […] Similar results were obtained when apoptosis was assayed using annexinV/PI staining and FACS analysis (FIG. 7E).

U-87MG = format: cell-based; conditions: Example 7, n=3, read-out: concentration for inducing 50% cell death (EC50)
Description: Human primary glioblastoma tumor-derived cell lines (U-87MG), at 6×10^5 cells per ml were incubated in a serum-free medium with the examined peptide at several concentrations for 6 h at 37° C. in the presence of 5% CO2. […] The cells were then trypsinized, centrifuged (1500×g, 5 min), washed with PBS and analyzed for cell death using PI staining and flow cytometer (Beckton-Dickinson, San Jose, Calif.) and BD CellQuest Pro software.

BNL1ME cell line = format: cell-based; conditions: serum-free medium, 6 h; for EC50: read-out: EC50 of cell death
Description: as §1, §2
Cells were incubated in a serum-free medium with each peptide type for 6 h at 37° C. in the presence of 5% CO2.

[2] = Peptide solubility (soluble peptide in supernatant, absorbance at 280 nm); format: physicochemical
Description: The peptides were dissolved in 100% DMSO then diluted by about 10-fold to reduce DMSO to 10-11% and the peptide to 4.4 or 4 mM, and the amount of the soluble peptide was analyzed in the supernatant (SUP) following centrifugation to remove insoluble peptide.
The peptides were synthesized by GL Biochem (Shanghai, China) to >95% purity. […] Then the solutions were diluted to peptide concentration of 20 mg/ml (4.86 mM) by adding while mixing 95 μl of distilled water and the diluted solutions were incubated in 37° C. water bath for 30 minutes to allow further solubilization until the solutions became clear. The peptide solutions were then centrifuged for 5 min at 15,000 g and the supernatant of each preparation was transferred to fresh Eppendorf tube with low binding capacity. Aliquots of the obtained solution were taken for further analysis of peptide concentration.
Peptides were dissolved as described hereinabove. Concentration examined was 4 mM; solvent used was DDW/10% DMSO/150 mM NaCl (NaCl added later at a final concentration of 150 mM) as a common physiologically compatible solution for drug administration.
The molecular weight of Tf-D-LP=4111.67 g/mol. […] 8.5 μl DMSO 100% were added to the peptide to form a concentration of 40 mM, and the solution was incubated in a water bath at 37° C. for 15 min until the solution became clear. The solution obtained was diluted by about 10-fold with DDW reaching a final concentration of 4.4 mM (11.1% DMSO), incubated in a water bath at 37° C. for 15 min, and then incubated overnight at 4° C. […] Peptide concentration in each step was analyzed.
Peptide concentration was determined from the absorbance at 280 nm following its denaturation and using the following calculation:
Weight/volume (mg/ml) concentration was calculated according to the equation: mg peptide/ml=(AU×DF×Mw)/[(TrypW #×5560)+(TyrY #×1200)]: • AU—peptide absorbance measured • DF—dilution factor • Mw—Molecular weight • TrypW #—number of Tryptophan in the peptide sequence • TyrY #—number of Tyrosine in the peptide sequence

A549 = assay: Peptide storage stability, read out as death of A549 cells (PI staining, FACS); format: cell-based; conditions: for activity kept after storage: assayed at 10 μM on A549
Description: The peptide (0.5 mM in 5% DMSO) was incubated at −20° C., 4° C. or 25° C. for the indicated time, and then assayed (at 10 μM) for its capability to induce death of A549 using PI staining and FACS analysis. In untreated cells, cell death was 3%, while with the peptide, cell death was over 90% (n=2).
The assay conditions were as described in FIG. 8A above.

Structure (SMILES) | EC50 (B16F10.0 melanoma cells) | EC50 (PANC-2 cells) | EC50 (GL-261 cells) | crossing of the blood brain barrier (BBB) (U-87MG cells) | EC50 (THP-1 cells) | EC50 (PANC-1 cells) | EC50 [1] | EC50 (U-87MG) | EC50 (BNL1ME cell line) | solubility in 100% DMSO [2] | activity kept after storage (A549; 0.5 mM in 5% DMSO stored at 4° C. or 25° C.) | activity kept after storage (A549; 0.5 mM in 5% DMSO stored at −20° C.) | cell death (A549; A549, 10 μM peptide, n=2, untreated cells 3%) | maximal cell death induction (BNL1ME cell line) | solubility in 100% DMSO ([2]; 100% DMSO) | soluble peptide out of the total peptide content ([2]; DMSO concentration reduced to 10%, about 4 mM peptide)
CC[C@H](C)[C@H](NC(=O)[C@H](Cc1ccc(O)cc1)NC(=O)[C@@H]1CCCN1C(=O)[C@H](CCCNC(=N)N)NC(=O)[C@H](Cc1c[nH]cn1)NC(=O)[C@@H](CO)NC(=O)[C@@H](Cc1c[nH]c2ccccc12)NC(=O)[C@H](NC(=O)[C@@H](Cc1c[nH]c2ccccc12)NC(=O)[C@@H](CCC(=O)O)NC(=O)[C@@H](CCCCN)NC(=O)[C@@H](CCCCN)NC(=O)[C@@H](CC(C)C)NC(=O)[C@@H](CCC(=O)O)NC(=O)[C@H](NC(=O)[C@@H](C)NC(=O)[C@H](NC(=O)[C@@H](CC(N)=O)NC(=O)[C@@H](CC(C)C)NC(=O)[C@@H](C)NC(=O)[C@@H](Cc1c[nH]c2ccccc12)NC(=O)[C@H](NC(=O)[C@@H](C)NC(=O)CNC(=O)[C@@H](CC(N)=O)NC(=O)[C@@H](CO)NC(=O)[C@@H](CC(N)=O)NC(=O)[C@@H](CCCCN)NC(=O)[C@@H](Cc1c[nH]c2ccccc12)NC(=O)[C@H](NC(=O)[C@@H](Cc1c[nH]c2ccccc12)NC(=O)[C@H](N)CCCCN)[C@H](C)O)[C@H](C)O)C(C)C)[C@H](C)O)[C@H](C)O)C(=O)N[C@@H](C)C(=O)N[C@@H](Cc1c[nH]cn1)C(=O)O [Retro-Tf-D-LP4, D-Lys-D-Trp-D-Thr-D-Trp-D-Lys-D-Asn-D-Ser-D-Asn-D-Gly-D-Ala-D-Thr-D-Trp-D-Ala-D-Leu-D-Asn-D-Val-D-Ala-D-Thr-D-Glu-D-Leu-D-Lys-D-Lys-D-Glu-D-Trp-D-Thr-D-Trp-D-ser-His-Arg-Pro-Tyr-Ile-Ala-His] | 7 µM | ~4 µM | 2.2 µM | can cross the BBB | 4.5 µM | ~4 µM | 2.5 ± 0.3 µM | 1.5 ± 0.3 µM | 2.5 µM | high solubility |  |  |  |  |  | 
CC[C@H](C)[C@H](NC(=O)[C@H](C)NC(=O)[C@@H](N)Cc1c[nH]cn1)C(=O)N[C@@H](Cc1ccc(O)cc1)C(=O)N1CCC[C@H]1C(=O)N[C@@H](CCCNC(=N)N)C(=O)N[C@@H](Cc1c[nH]cn1)C(=O)N[C@H](CO)C(=O)N[C@H](Cc1c[nH]c2ccccc12)C(=O)N[C@@H](C(=O)N[C@H](Cc1c[nH]c2ccccc12)C(=O)N[C@H](CCC(=O)O)C(=O)N[C@H](CCCCN)C(=O)N[C@H](CCCCN)C(=O)N[C@H](CC(C)C)C(=O)N[C@H](CCC(=O)O)C(=O)N[C@@H](C(=O)N[C@H](C)C(=O)N[C@@H](C(=O)N[C@H](CC(N)=O)C(=O)N[C@H](CC(C)C)C(=O)N[C@H](C)C(=O)N[C@H](Cc1c[nH]c2ccccc12)C(=O)N[C@@H](C(=O)N[C@H](C)C(=O)NCC(=O)N[C@H](CC(N)=O)C(=O)N[C@H](CO)C(=O)N[C@H](CC(N)=O)C(=O)N[C@H](CCCCN)C(=O)N[C@H](Cc1c[nH]c2ccccc12)C(=O)N[C@@H](C(=O)N[C@H](Cc1c[nH]c2ccccc12)C(=O)N[C@H](CCCCN)C(=O)O)[C@H](C)O)[C@H](C)O)C(C)C)[C@H](C)O)[C@H](C)O [Tf-D-LP4, His-Ala-Ile-Tyr-Pro-Arg-His-D-Ser-D-Trp-D-Thr-D-Trp-D-Glu-D-Lys-D-Lys-D-Leu-D-Glu-D-Thr-D-Ala-D-Val-D-Asn-D-Leu-D-Ala-D-Trp-D-Thr-D-Ala-D-Gly-D-Asn-D-Ser-D-Asn-D-Lys-D-Trp-D-Thr-D-Trp-D-Lys] |  |  | 3.3 µM |  | 8 µM |  |  |  | 2.7 µM |  | 75% | full activity | over 90% | 70% | high solubility | about 10%
